Reference: ChEMBL document CHEMBL4477257, “In vitro cytotoxicity of novel 2,5,7-tricarbo-substituted indoles derived from 2-amino-5-bromo-3-iodoacetophenone” (2016)
Active and inactive are the calls of the source. The rule behind the calls is not given here.

Key:
[1] = test system: HeLa; experiment: Cytotoxicity against human HeLa cells assessed as cell viability at 5 uM after 2 days by MTT assay relative to control; type: functional; conditions: 48 h, read-out: Activity
[2] = test system: HeLa; experiment: Cytotoxicity against human HeLa cells assessed as cell viability at 10 uM after 2 days by MTT assay relative to control; type: functional; conditions: 48 h, read-out: Activity
[3] = test system: MCF7; experiment: Cytotoxicity against human MCF7 cells assessed as reduction in cell viability after 2 days by MTT assay; type: functional; conditions: MCF7, 48 h, read-out: LC50 (the source's name)
[4] = test system: MCF7; experiment: Cytotoxicity against human MCF7 cells assessed as cell viability at 5 uM after 2 days by MTT assay relative to control; type: functional; conditions: MCF7, 48 h, read-out: Activity
[5] = test system: HeLa; experiment: Induction of apoptosis in human HeLa cells assessed as late apoptotic cells at 3 uM after 48 hrs by Annexin V/propidium iodide staining based flow cytometric analysis (reference value: 31.80 +/- 0.25 %); type: functional
[6] = test system: MCF7; experiment: Cytotoxicity against human MCF7 cells assessed as cell viability at 20 uM after 2 days by MTT assay relative to control; type: functional; conditions: MCF7, 48 h, read-out: Activity
[7] = test system: MCF7; experiment: Cytotoxicity against human MCF7 cells assessed as cell viability at 2 uM after 2 days by MTT assay relative to control; type: functional; conditions: MCF7, 48 h, read-out: Activity
[8] = test system: HeLa; experiment: Induction of apoptosis in human HeLa cells assessed as viable cells at 3 uM after 48 hrs by Annexin V/propidium iodide staining based flow cytometric analysis (reference value: 46.00 +/- 0.56 %); type: functional; conditions: read-out: Activity
[9] = test system: HeLa; experiment: Induction of apoptosis in human HeLa cells assessed as caspase 3 activation at 0.75 to 3 uM after 24 hrs by colorimetric analysis; type: functional, cell-based
[10] = test system: HeLa; experiment: Cytotoxicity against human HeLa cells assessed as cell viability at 2 uM after 2 days by MTT assay relative to control; type: functional; conditions: 48 h, read-out: Activity
[11] = test system: MCF7; experiment: Cytotoxicity against human MCF7 cells assessed as cell viability at 1 uM after 2 days by MTT assay relative to control; type: functional; conditions: MCF7, 48 h, read-out: Activity
[12] = test system: HeLa; experiment: Cytotoxicity against human HeLa cells assessed as reduction in cell viability after 2 days by MTT assay; type: functional; conditions: 48 h, read-out: LC50 (the source's name)
[13] = test system: HeLa; experiment: Cytotoxicity against human HeLa cells assessed as cell viability at 0.5 uM after 2 days by MTT assay relative to control; type: functional; conditions: 48 h, read-out: Activity
[14] = test system: HeLa; experiment: Induction of apoptosis in human HeLa cells assessed as necrotic cells at 3 uM after 48 hrs by Annexin V/propidium iodide staining based flow cytometric analysis (reference value: 21.45 +/- 0.78 %); type: functional
[15] = test system: MCF7; experiment: Cytotoxicity against human MCF7 cells assessed as cell viability at 0.5 uM after 2 days by MTT assay relative to control; type: functional; conditions: MCF7, 48 h, read-out: Activity
[16] = test system: HeLa; experiment: Cytotoxicity against human HeLa cells assessed as cell viability at 20 uM after 2 days by MTT assay relative to control; type: functional; conditions: 48 h, read-out: Activity
[17] = test system: HeLa; experiment: Cytotoxicity against human HeLa cells assessed as cell viability at 1 uM after 2 days by MTT assay relative to control; type: functional; conditions: 48 h, read-out: Activity
[18] = test system: HeLa; experiment: Induction of apoptosis in human HeLa cells assessed as early apoptotic cells at 3 uM after 48 hrs by Annexin V/propidium iodide staining based flow cytometric analysis (reference value: 0.05 +/- 0.07 %); type: functional
[19] = test system: MCF7; experiment: Cytotoxicity against human MCF7 cells assessed as cell viability at 10 uM after 2 days by MTT assay relative to control; type: functional; conditions: MCF7, 48 h, read-out: Activity

`COc1cccc2c1C(=O)c1c(O)c3c(c(O)c1C2=O)C[C@@](O)(C(=O)CO)C[C@@H]3O[C@H]1C[C@H](N)[C@H](O)[C@H](C)O1.Cl` [DOXORUBICIN HYDROCHLORIDE] was tested, and the viability at 5 µM [1] was 8.53%, the viability at 10 µM [2] was 4.43% and the CC50 [3] was 1070 nM. The viability at 5 µM [4] was 34%, the Activity [5] was 58.5% and the viability at 20 µM [6] was 24%. The viability at 2 µM [7] was 38.4%, the viability at 3 µM [8] was 1.55% and the Activity [9] was “Active”. For the same molecule, the viability at 2 µM [10] was 39.2%, the viability at 1 µM [11] was 44% and the CC50 [12] was 780 nM. For the same molecule, the viability at 0.5 µM [13] was 62.8%, the Activity [14] was 40.4% and the viability at 0.5 µM [15] was 66.4%. It also gave a viability at 20 µM [16] of 3.41%, a viability at 1 µM [17] of 46% and an Activity [18] of 0.95%. For the same molecule, the viability at 10 µM [19] was 27.5%.
